Reference: ChEMBL document CHEMBL3769350, “Synthesis and biological evaluation of piperazine group-linked bivalent -carbolines as potential antitumor agents” (Medchemcomm, 2015)
Calls of active or inactive are those of the source. No cut-off for these calls is given here.

Columns and labels:
[1] = test system: HepG2; experiment: Cytotoxicity against human HepG2 cells by MTT assay; assay type: functional, cell-based
[2] = test system: CWR22R; experiment: Cytotoxicity against human 22Rv1 cells by MTT assay; assay type: functional, cell-based
[3] = test system: A-375; experiment: Cytotoxicity against human A375 cells by MTT assay; assay type: functional, cell-based
[4] = test system: 769-P; experiment: Cytotoxicity against human 769-P cells by MTT assay; assay type: functional, cell-based
[5] = test system: MCF7; experiment: Cytotoxicity against human MCF7 cells by MTT assay; assay type: functional, cell-based
[6] = Cytotoxicity against human BGC823 cells by MTT assay; assay type: functional, cell-based; settings: BGC-823
[7] = Cytotoxicity against human SKOV3 cells by MTT assay; assay type: functional, cell-based; settings: SK-OV-3
[8] = Cytotoxicity against human ECA109 cells by MTT assay; assay type: functional, cell-based; settings: ECa-109
[9] = Cytotoxicity against mouse LLC cells by MTT assay; assay type: functional, cell-based; settings: Lewis lung carcinoma
[10] = test system: HT-29; experiment: Cytotoxicity against human HT-29 cells by MTT assay; assay type: functional, cell-based
[11] = test system: Chorioallantoic membrane; experiment: Antiangiogenic activity in chicken chorioallantoic membrane at 200 uM after 48 hrs by microscopic analysis; assay type: functional; settings: Gallus gallus
[12] = test system: Chorioallantoic membrane; experiment: Antiangiogenic activity in chicken chorioallantoic membrane at 50 to 200 uM after 48 hrs by microscopic analysis; assay type: functional; settings: Gallus gallus

| SMILES | IC50 [1] [µM] | IC50 [2] [µM] | IC50 [3] [µM] | IC50 [4] [µM] | IC50 [5] [µM] | IC50 [6] [µM] | IC50 [7] [µM] | IC50 [8] [µM] | IC50 [9] [µM] | IC50 [10] [µM] | inhibition [11] | inhibition [12] |
| --- | --- | --- | --- | --- | --- | --- | --- | --- | --- | --- | --- | --- |
| COc1ccc(-c2nc(CN3CCN(Cc4cc5c6ccccc6n(CCCc6ccccc6)c5c(-c5ccc(OC)cc5)n4)CC3)cc3c4ccccc4n(CCCc4ccccc4)c23)cc1 | > 100 | > 100 | > 100 | > 100 | > 100 | > 100 | > 100 | > 100 | > 100 | > 100 | – | – |
| CCCCn1c2ccccc2c2cc(CN3CCN(Cc4cc5c6ccccc6n(CCCC)c5cn4)CC3)ncc21 | 15.2 | 43.9 | 16.8 | 38.2 | 29.2 | 9.52 | 11.3 | 26.4 | 2.36 | 17.1 | – | – |
| COc1ccc(-c2nc(CN3CCN(Cc4cc5c6ccccc6n(CCCc6ccccc6)c5c(-c5ccc(OC)c(OC)c5)n4)CC3)cc3c4ccccc4n(CCCc4ccccc4)c23)cc1OC | > 100 | > 100 | > 100 | > 100 | > 100 | > 100 | > 100 | > 100 | > 100 | > 100 | – | – |
| CCn1c2ccccc2c2cc(CN3CCN(Cc4cc5c6ccccc6n(CC)c5cn4)CC3)ncc21 | > 100 | 52.3 | 49.9 | 64.3 | 82.8 | 68.6 | 24.4 | > 100 | 13.8 | 32.8 | – | – |
| CCn1c2ccccc2c2cc(CN3CCN(Cc4cc5c6ccccc6n(CC)c5c(-c5ccccc5)n4)CC3)nc(-c3ccccc3)c21 | > 100 | 24.9 | 9.92 | 29.6 | > 100 | 38.8 | 19.8 | > 100 | 14 | 17.6 | – | – |
| c1ccc(Cn2c3ccccc3c3cc(CN4CCN(Cc5cc6c7ccccc7n(Cc7ccccc7)c6cn5)CC4)ncc32)cc1 | 65.4 | > 100 | > 100 | > 100 | > 100 | > 100 | 46.5 | > 100 | 79.8 | 36.8 | – | – |
| CCCCn1c2ccccc2c2cc(CN3CCN(Cc4cc5c6ccccc6n(CCCC)c5c(-c5ccc(OC)cc5)n4)CC3)nc(-c3ccc(OC)cc3)c21 | 25.7 | 27.6 | 19.6 | 16.6 | 20.6 | 28.8 | 24.6 | 24.7 | 27.4 | 11.8 | – | – |
| CCCCn1c2ccccc2c2cc(CN3CCN(Cc4cc5c6ccccc6n(CCCC)c5c(-c5cc(OC)c(OC)c(OC)c5)n4)CC3)nc(-c3cc(OC)c(OC)c(OC)c3)c21 | 7.26 | 6.82 | 36 | 15.6 | 12.5 | 26.6 | 7.11 | 18.3 | 19.8 | 13.5 | – | – |
| Cc1nc(CN2CCN(Cc3cc4c5ccccc5n(Cc5cccc(Cl)c5)c4c(C)n3)CC2)cc2c3ccccc3n(Cc3cccc(Cl)c3)c12 | 38.1 | 40.8 | 32.4 | 45.8 | 43.7 | 40.8 | 51.4 | 57.6 | 12 | 25.2 | – | – |
| COc1ccc(/C=C\c2cc(OC)c(OC)c(OC)c2)cc1OP(=O)(O)O | – | – | – | – | – | – | – | – | – | – | Active | – |
| COc1ccc(-c2nc(CN3CCN(Cc4cc5c6ccccc6n(C)c5c(-c5ccc(OC)cc5)n4)CC3)cc3c4ccccc4n(C)c23)cc1 | 55 | 47.8 | 45.7 | > 100 | > 100 | 56.3 | 57.8 | 68.5 | 69 | 29 | – | – |
| CCn1c2ccccc2c2cc(CN3CCN(Cc4cc5c6ccccc6n(CC)c5c(-c5ccc(OC)c(OC)c5)n4)CC3)nc(-c3ccc(OC)c(OC)c3)c21 | 27.2 | 42.3 | 37.3 | 61.1 | 27.3 | 19.8 | 32.7 | 68.5 | 9.68 | 34.3 | – | – |
| Cn1c2ccccc2c2cc(CN3CCN(Cc4cc5c6ccccc6n(C)c5c(-c5ccccc5)n4)CC3)nc(-c3ccccc3)c21 | > 100 | 54.3 | 40.9 | > 100 | > 100 | > 100 | > 100 | > 100 | 34.5 | > 100 | – | – |
| Cc1nc(CN2CCN(Cc3cc4c5ccccc5n(C)c4c(C)n3)CC2)cc2c3ccccc3n(C)c12 | > 100 | 86.3 | > 100 | > 100 | > 100 | 78.5 | 31 | > 100 | 61.8 | > 100 | – | – |
| c1ccc(Cn2c3ccccc3c3cc(CN4CCN(Cc5cc6c7ccccc7n(Cc7ccccc7)c6c(-c6ccccc6)n5)CC4)nc(-c4ccccc4)c32)cc1 | > 100 | > 100 | > 100 | > 100 | > 100 | > 100 | > 100 | > 100 | > 100 | > 100 | – | – |
| CCCCn1c2ccccc2c2cc(CN3CCN(Cc4cc5c6ccccc6n(CCCC)c5c(-c5ccc(OC)c(OC)c5)n4)CC3)nc(-c3ccc(OC)c(OC)c3)c21 | 17 | 19.5 | 15.5 | 10 | 14.5 | 6.21 | 25.7 | 32.4 | 9.78 | 11.8 | – | – |
| COc1cc(-c2nc(CN3CCN(Cc4cc5c([nH]c6ccccc65)c(-c5cc(OC)c(OC)c(OC)c5)n4)CC3)cc3c2[nH]c2ccccc23)cc(OC)c1OC | > 100 | > 100 | > 100 | > 100 | > 100 | > 100 | > 100 | > 100 | > 100 | > 100 | – | – |
| Fc1ccc(Cn2c3ccccc3c3cc(CN4CCN(Cc5cc6c7ccccc7n(Cc7ccc(F)cc7)c6cn5)CC4)ncc32)cc1 | 76.3 | 60.6 | 46 | 29 | 72.8 | 85.6 | 8.43 | 24.7 | 15.9 | 18.3 | – | – |
| c1ccc(CCCn2c3ccccc3c3cc(CN4CCN(Cc5cc6c7ccccc7n(CCCc7ccccc7)c6c(-c6ccccc6)n5)CC4)nc(-c4ccccc4)c32)cc1 | > 100 | > 100 | > 100 | > 100 | > 100 | > 100 | > 100 | > 100 | > 100 | > 100 | – | – |
| COc1cc(-c2nc(CN3CCN(Cc4cc5c6ccccc6n(CCCc6ccccc6)c5c(-c5cc(OC)c(OC)c(OC)c5)n4)CC3)cc3c4ccccc4n(CCCc4ccccc4)c23)cc(OC)c1OC | > 100 | > 100 | > 100 | > 100 | > 100 | > 100 | > 100 | > 100 | > 100 | > 100 | – | – |
| c1ccc(CCCn2c3ccccc3c3cc(CN4CCN(Cc5cc6c7ccccc7n(CCCc7ccccc7)c6cn5)CC4)ncc32)cc1 | 8.95 | 5.32 | 8.35 | 3.02 | 7.62 | 7.62 | 5.51 | 24.6 | 5.15 | 18.7 | – | – |
| Cc1nc(CN2CCN(Cc3cc4c5ccccc5n(CC(C)C)c4c(C)n3)CC2)cc2c3ccccc3n(CC(C)C)c12 | 9.66 | 12.5 | 13 | 12.7 | 7.16 | 10.8 | 16 | 14.3 | 7.68 | 11.3 | – | Active |
| COc1ccc(-c2nc(CN3CCN(Cc4cc5c6ccccc6n(Cc6ccccc6)c5c(-c5ccc(OC)c(OC)c5)n4)CC3)cc3c4ccccc4n(Cc4ccccc4)c23)cc1OC | > 100 | > 100 | > 100 | > 100 | > 100 | > 100 | > 100 | > 100 | 36.4 | > 100 | – | – |
| COc1ccc(-c2nc(CN3CCN(Cc4cc5c([nH]c6ccccc65)c(-c5ccc(OC)cc5)n4)CC3)cc3c2[nH]c2ccccc23)cc1 | > 100 | > 100 | > 100 | > 100 | > 100 | > 100 | > 100 | > 100 | > 100 | > 100 | – | – |
| COc1cc(-c2nc(CN3CCN(Cc4cc5c6ccccc6n(C)c5c(-c5cc(OC)c(OC)c(OC)c5)n4)CC3)cc3c4ccccc4n(C)c23)cc(OC)c1OC | > 100 | > 100 | 64.2 | > 100 | 65.6 | 45.3 | 18.9 | 26.3 | 39 | > 100 | – | – |
| COc1ccc(-c2nc(CN3CCN(Cc4cc5c6ccccc6n(Cc6ccccc6)c5c(-c5ccc(OC)cc5)n4)CC3)cc3c4ccccc4n(Cc4ccccc4)c23)cc1 | > 100 | > 100 | > 100 | > 100 | > 100 | > 100 | > 100 | > 100 | 40.4 | > 100 | – | – |
